Data taken from US5843955A, “Compound LK6-A” (Kyowa Hakko Kogyo Co., Ltd., priority 1995, dated 1998).

Assays:
[1] = tested on: L1210 cell; conditions: Tetrahedron Letters, 31, 3271 (1990); cited from earlier work
[2] = tested on: reverse transcriptase; conditions: U.S. Pat. No. 4,959,370; J. Am. Chem. Soc., 112, 1 (1990); cited from earlier work
[3] = tested on: Nippostrongylus brasiliensis; conditions: U.S. Pat. No. 4,959,370; J. Am. Chem. Soc., 112, 1 (1990); cited from earlier work
[4] = tested on: T cells; test: Growth inhibition against T cells in murine mixed lymphocyte reaction; type: cell-based; conditions: Mus musculus, T-cell; 72 hours at 37° C., [^3 H]Thymidine incorporation (added 18 hours before end); read-out: 50% inhibitory concentration (IC50) against the growth of T cells in murine mixed lymphocyte reaction
Procedure: Growth inhibition against T cells in murine mixed lymphocyte reaction
Lymph node was aseptically excised from a B10.BR mouse (Japan SLC Inc.) with a solution comprising Hanks' […] salt solution (HBSS, Gibco) and 2.5% fetal calf serum (FCS, Gibco) (hereinafter referred to as HBSS-FCS) and resuspended into a culture medium (RPMI 1640, Nissui) containing 10% fetal calf serum (FCS, Gibco), 1% 200 mM L-Gultamine (Gibco), 1% Penicillin-Streptoymycin liquid (Gibco), 5% NCTC-109 (Gibco), 1% 1M HEPES (Gibco), 7.5% NaHCO3 (SIGMA) and 0.1% 50 mM 2-mercaptoethanol (Nakarai) (hereinafter referred to as RPMI 1640-FCS) to prepared a single cell suspension to give a density of 3×10^6 cells/ml. […]
[^3 H]Thymidine was added to the wells in an amount of 1.0 μCi/well 18 hours before the end of each incubation. […] A toluene scintillator was added to the cells, and the amount of [^3 H]Thymidine radioactivity incorporated into the cells was determined using a liquid scintillation counter. The T cell growth inhibition rate was calculated according to the following equation. […]
C: Amount of [^3 H]Thymidine radioactivity incorporated into the mixed cell suspension
T: Amount of [^3 H]Thymidine radioactivity incorporated into the LK6-A-treated mixed cell suspension
A: Amount of [^3 H]Thymidine radioactivity incorporated into only the B10.BR murine lymph node cells. […]

[5] = Solubility; type: physicochemical

## plakinidine A
[1]
  cytotoxic activity against the L1210 cell: cytotoxic activity
[2]
  reverse transcriptase inhibitory activity: reverse transcriptase inhibitory activity
[3]
  activity against a parasite Nippostrongylus brasiliensis: activity

## CNc1c2ncc3c4ccccc4[nH]c(c4nccc(=O)c14)c23 [plakinidine C]
[1]
  cytotoxic activity against the L1210 cell: cytotoxic activity

## plakinidine B
[1]
  cytotoxic activity against the L1210 cell: cytotoxic activity
[3]
  activity against a parasite Nippostrongylus brasiliensis: activity

## CO/C=C/C(=O)c1cc2c3c(c(N)cc(NC(C)=O)c3n1)N=C2 [LK6-A]
[4]
  IC50: 9 nM
[5]; chloroform
  Solubility: sparingly soluble
[5]; dimethylsulfoxide (DMSO)
  Solubility: Soluble
[5]; hexane
  Solubility: insoluble
[5]; methanol
  Solubility: sparingly soluble
[5]; water
  Solubility: sparingly soluble
